Results reported in paper PMC5791972 (PLoS ONE, 2018).
Like-named read-outs stand apart in the source and are kept apart here.

Assays:
[1] = target: T1, α1A (h) (Homo sapiens, UniProt P35348); type: binding; conditions: 1 h, 1.0E-06 M
T1 construct: expressed in transfected cells; host or cells: CHO cells
T1 sequence (P35348 1-466): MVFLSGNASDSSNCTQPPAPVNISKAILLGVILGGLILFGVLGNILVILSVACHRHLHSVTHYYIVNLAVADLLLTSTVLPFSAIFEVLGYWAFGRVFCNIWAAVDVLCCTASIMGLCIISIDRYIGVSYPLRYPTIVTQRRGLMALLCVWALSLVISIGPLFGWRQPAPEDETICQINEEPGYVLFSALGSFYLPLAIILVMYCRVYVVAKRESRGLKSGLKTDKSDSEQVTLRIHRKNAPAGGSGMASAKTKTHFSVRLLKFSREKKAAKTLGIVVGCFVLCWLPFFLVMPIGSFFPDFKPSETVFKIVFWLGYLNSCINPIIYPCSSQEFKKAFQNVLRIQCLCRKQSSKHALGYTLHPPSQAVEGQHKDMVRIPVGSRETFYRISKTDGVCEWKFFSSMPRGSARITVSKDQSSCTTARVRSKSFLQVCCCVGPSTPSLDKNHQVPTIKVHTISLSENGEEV

[2] = test system: BZD (central); type: binding, rat; conditions: 1.0E-06 M
[3] = target: D2S (h) (Homo sapiens, UniProt P14416); test: biochemical
[4] = target: T2, NK2 (h) (Homo sapiens, UniProt P21452); type: binding; conditions: 1.0E-06 M
T2 construct: host or cells: CHO cells
T2 sequence (P21452 1-398): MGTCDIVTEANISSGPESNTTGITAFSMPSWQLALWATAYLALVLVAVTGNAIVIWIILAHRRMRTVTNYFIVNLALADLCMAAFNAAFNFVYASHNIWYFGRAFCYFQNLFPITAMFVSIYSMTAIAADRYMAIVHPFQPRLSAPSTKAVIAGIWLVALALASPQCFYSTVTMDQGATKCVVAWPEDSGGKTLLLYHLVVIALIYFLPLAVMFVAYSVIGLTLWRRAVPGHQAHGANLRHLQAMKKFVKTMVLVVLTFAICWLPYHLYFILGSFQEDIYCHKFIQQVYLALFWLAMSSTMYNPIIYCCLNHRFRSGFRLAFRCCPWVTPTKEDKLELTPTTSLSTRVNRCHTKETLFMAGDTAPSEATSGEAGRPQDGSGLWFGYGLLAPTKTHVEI

[5] = target: κ (KOP) (Rattus norvegicus, UniProt P34975); test: biochemical
[6] = target: T3, MC1 (Mus musculus, UniProt Q01727); type: binding; conditions: 1.0E-06 M
T3 construct: (endogenous); host or cells: B16-F1 cells

[7] = target: T4, motilin (h) (Homo sapiens, UniProt O43193); type: binding
T4 construct: host or cells: CHO cells

[8] = test system: Cl- channel (GABA-gated); type: binding, rat; conditions: 1.0E-06 M
[9] = target: T5, M1 (h) (Homo sapiens, UniProt P11229); test: biochemical; type: binding; conditions: 1.0E-06 M
T5 construct: host or cells: CHO cells
T5 sequence (P11229 1-460): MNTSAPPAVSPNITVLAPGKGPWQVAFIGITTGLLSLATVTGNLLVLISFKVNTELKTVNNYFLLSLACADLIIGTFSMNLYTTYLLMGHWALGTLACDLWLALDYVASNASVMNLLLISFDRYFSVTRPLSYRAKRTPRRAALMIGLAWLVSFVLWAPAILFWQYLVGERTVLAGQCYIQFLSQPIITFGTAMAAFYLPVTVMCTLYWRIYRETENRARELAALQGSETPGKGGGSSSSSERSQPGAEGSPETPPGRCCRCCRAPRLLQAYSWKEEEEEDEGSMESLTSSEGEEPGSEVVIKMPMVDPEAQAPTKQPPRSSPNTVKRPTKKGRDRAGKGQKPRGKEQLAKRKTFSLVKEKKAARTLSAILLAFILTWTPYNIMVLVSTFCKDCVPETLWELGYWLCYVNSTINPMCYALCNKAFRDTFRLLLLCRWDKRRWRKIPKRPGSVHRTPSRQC

T3 sequence (Q01727 whole entry): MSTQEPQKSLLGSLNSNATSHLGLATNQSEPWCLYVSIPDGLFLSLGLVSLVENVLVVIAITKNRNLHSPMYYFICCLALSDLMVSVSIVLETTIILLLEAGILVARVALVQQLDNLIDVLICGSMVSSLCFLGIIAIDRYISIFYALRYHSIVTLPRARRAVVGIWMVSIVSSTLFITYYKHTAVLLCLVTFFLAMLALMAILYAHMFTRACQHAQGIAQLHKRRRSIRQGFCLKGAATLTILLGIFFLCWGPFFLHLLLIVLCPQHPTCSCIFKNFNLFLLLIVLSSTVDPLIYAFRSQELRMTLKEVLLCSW
T4 sequence (O43193 whole entry): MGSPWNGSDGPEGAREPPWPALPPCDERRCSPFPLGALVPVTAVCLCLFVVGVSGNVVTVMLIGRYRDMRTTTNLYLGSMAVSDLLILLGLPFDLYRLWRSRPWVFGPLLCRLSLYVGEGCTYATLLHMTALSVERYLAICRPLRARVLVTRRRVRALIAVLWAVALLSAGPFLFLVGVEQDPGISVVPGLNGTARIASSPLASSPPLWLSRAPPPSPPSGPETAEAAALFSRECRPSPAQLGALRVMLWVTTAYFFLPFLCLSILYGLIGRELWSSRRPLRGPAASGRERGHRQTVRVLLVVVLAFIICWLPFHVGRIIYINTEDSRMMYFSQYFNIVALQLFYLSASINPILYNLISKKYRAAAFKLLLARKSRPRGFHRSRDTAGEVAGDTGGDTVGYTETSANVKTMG
Sequence of κ (KOP) (P34975 whole entry): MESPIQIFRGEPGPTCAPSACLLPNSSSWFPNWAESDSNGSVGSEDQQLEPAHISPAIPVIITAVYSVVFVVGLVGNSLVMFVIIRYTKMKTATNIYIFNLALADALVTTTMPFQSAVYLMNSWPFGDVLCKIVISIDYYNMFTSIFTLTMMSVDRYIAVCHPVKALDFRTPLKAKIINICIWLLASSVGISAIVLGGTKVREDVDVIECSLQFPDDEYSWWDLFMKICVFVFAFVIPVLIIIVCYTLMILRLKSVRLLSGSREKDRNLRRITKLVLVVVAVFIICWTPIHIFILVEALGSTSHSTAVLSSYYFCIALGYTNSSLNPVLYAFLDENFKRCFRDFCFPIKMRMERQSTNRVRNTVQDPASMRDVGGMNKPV
Sequence of D2S (h) (P14416 1-414 isoform P14416-2): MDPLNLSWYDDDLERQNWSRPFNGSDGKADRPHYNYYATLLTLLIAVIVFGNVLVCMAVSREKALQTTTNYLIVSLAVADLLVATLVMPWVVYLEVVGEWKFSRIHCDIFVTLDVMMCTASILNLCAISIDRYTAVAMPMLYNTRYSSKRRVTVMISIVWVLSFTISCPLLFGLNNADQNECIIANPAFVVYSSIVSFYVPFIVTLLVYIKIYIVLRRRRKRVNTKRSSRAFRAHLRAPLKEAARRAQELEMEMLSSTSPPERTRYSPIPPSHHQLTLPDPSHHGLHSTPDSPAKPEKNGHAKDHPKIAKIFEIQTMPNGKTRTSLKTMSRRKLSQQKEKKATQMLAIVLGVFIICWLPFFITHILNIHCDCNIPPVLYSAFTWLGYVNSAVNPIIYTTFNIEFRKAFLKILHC

Cn1c(=O)n(CCCO)c(=O)c2c1nc(Oc1cccc(Cl)c1)n2Cc1ccc(Cl)cc1 [HC-070]
inhibition at 1 µM ([1]; read-out: % Inhibition 1st): -6.1%
inhibition at 1 µM ([1]; read-out: % Inhibition 2nd): 3.1%
inhibition at 1 µM ([1]; read-out: % Inhibition Mean): -1.5%

Cn1c(=O)n(CCCO)c(=O)c2c1nc(Oc1cccc(OC(F)(F)F)c1)n2Cc1ccc(Cl)cc1 [HC-608]
% Inhibition 1st [2]: -3%
% Inhibition 2nd [2]: -31.5%
% Inhibition Mean [2]: -17.3%
inhibition at 1 µM ([3]; read-out: % Inhibition 1st): 19.2%
inhibition at 1 µM ([3]; read-out: % Inhibition 2nd): 9.4%
inhibition at 1 µM ([3]; read-out: % Inhibition Mean): 14.3%
inhibition at 1 µM ([4]; read-out: % Inhibition 1st): -10%
inhibition at 1 µM ([4]; read-out: % Inhibition 2nd): 18.9%
inhibition at 1 µM ([4]; read-out: % Inhibition Mean): 4.4%
inhibition at 1 µM ([5]; read-out: % Inhibition 1st): -8.1%
inhibition at 1 µM ([5]; read-out: % Inhibition 2nd): 1.1%
inhibition at 1 µM ([5]; read-out: % Inhibition Mean): -3.5%
inhibition at 1 µM ([6]; read-out: % Inhibition 1st): 1%
inhibition at 1 µM ([6]; read-out: % Inhibition 2nd): -3.6%
inhibition at 1 µM ([6]; read-out: % Inhibition Mean): -1.3%
inhibition at 1 µM ([7]; 1.0E-06 M, read-out: % Inhibition 1st): -25.4%
inhibition at 1 µM ([7]; 1.0E-06 M, read-out: % Inhibition 2nd): -16.2%
inhibition at 1 µM ([7]; read-out: % Inhibition Mean): -20.8%
% Inhibition 1st [8]: 24.7%
% Inhibition 2nd [8]: 23.2%
% Inhibition Mean [8]: 23.9%
inhibition at 1 µM ([9]; read-out: % Inhibition 1st): -1.6%
inhibition at 1 µM ([9]; read-out: % Inhibition 2nd): 5.5%
inhibition at 1 µM ([9]; read-out: % Inhibition Mean): 2%
